From patent EP4223882A1, “PROCESS FOR PRODUCING ALDONIC ACIDS” (Vilnius University, priority 2022, dated 2023)
Read-outs that look alike come from different tables or passages of the source.

Experiments:
PQQGDH [1] = target: T1, PQQGDH (Acinetobacter calcoaceticus, UniProt P13650); settings: for cmax: sqrt(KM·Ki)
T1 sequence (P13650 25-478): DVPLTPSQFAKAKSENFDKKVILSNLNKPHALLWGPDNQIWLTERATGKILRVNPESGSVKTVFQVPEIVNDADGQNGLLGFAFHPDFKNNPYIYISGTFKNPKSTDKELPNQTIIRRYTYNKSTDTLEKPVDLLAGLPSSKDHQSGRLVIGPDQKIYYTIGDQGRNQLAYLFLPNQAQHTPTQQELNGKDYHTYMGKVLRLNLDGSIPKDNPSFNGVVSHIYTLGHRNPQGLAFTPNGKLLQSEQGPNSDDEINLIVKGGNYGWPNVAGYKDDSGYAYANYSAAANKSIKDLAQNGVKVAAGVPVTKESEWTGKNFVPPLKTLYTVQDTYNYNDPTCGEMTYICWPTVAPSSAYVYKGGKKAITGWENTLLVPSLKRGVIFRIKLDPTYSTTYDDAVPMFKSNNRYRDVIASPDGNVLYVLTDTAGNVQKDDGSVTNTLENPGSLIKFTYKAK
Experimental: (§1) The enzyme solution was prepared using deionized water and the molar concentration was calculated assuming the molecular mass of the enzyme to be 100 kDa.
(§2) The dependence of PQQGDH catalysed substrate oxidation rate of substrate concentration was estimated for various substrates at thionine concentration of 220 µM (Fig. 3). The dependence of thionine reduction rate on carbohydrate concentration was analysed by applying the equation X1 and the apparent parameters KM, Ki and Vmax were calculated: v = (s⋅Vmax)/(KM + s⋅(1+(s)/(Ki))) [formula]
(§3) The ratio of Vmax with Km was considered as the parameter specifying the reactivity of the various substrates - the higher the value of the ratio - the better substrate reactivity. Ki - is the enzyme inhibition by the substrate constant. The concentration of the substrate at which the rate of thionine reduction was maximal (Cmax) was calculated as sqrt(KM ⋅Ki) [formula] .

PQQGDH [2] = target: T1, PQQGDH; assay: biochemical
Experimental: as §1, §2, §3

horseradish peroxidase = target: T2, horseradish peroxidase (Armoracia rusticana, UniProt P00433); settings: cited from earlier work
T2 sequence (P00433 31-338 limits assumed): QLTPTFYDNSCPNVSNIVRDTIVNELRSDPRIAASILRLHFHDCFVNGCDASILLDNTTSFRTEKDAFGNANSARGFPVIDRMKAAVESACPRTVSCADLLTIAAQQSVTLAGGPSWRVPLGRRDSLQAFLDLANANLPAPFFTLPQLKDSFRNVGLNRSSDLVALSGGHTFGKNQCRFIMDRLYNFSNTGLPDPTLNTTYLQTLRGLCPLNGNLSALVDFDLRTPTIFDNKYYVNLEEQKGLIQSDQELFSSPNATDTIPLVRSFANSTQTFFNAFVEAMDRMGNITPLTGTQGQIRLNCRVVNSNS

[3] = substrate: O=C[C@H](O)[C@@H](O)[C@H](O)CO; assay: purified protein, by the assay type; settings: other: pH 7.0, thionine 220 µM, apparent parameter
Experimental: as §1, §2, §3

[4] = substrate: O=C[C@H](O)[C@H](O)[C@H](O)CO; assay: purified protein, by the assay type; settings: other: pH 7.0, thionine 220 µM, apparent parameter
Experimental: as §1, §2, §3

[5] = substrate: OC[C@H]1O[C@@H](O[C@H]2[C@H](O)[C@@H](O)C(O)O[C@@H]2CO)[C@H](O)[C@@H](O)[C@H]1O; assay: purified protein, by the assay type; settings: apparent parameter
Experimental: as §1, §2, §3

[6] = substrate: O=C[C@H](O)[C@@H](O)[C@@H](O)[C@H](O)CO; assay: purified protein, by the assay type; settings: apparent parameter
Experimental: as §1, §2, §3

[7] = pH 7.0, thionine 220 µM, substrate concentration at maximal rate
[8] = pH 7.0, thionine 410 µM (asterisk)
[9] = Ki, pH 7.0, thionine 410 µM (asterisk), enzyme inhibition by the substrate constant
[10] = other: pH 7.0, thionine 410 µM (asterisk)

**Q.** Which “substrate concentration at which the maximal reaction rate was observed (cmax)” value (“substrate concentration” for short) (PQQGDH [1]; grouping of substrates) does the source give for `O=C[C@H](O)[C@@H](O)[C@H](O[C@@H]1O[C@H](CO)[C@@H](O)[C@H](O)[C@H]1O)[C@H](O)CO` [Cellobiose] here?
**A.** The value was less than 20 mM.

**Q.** And the cmax (PQQGDH [1]; [7])?
**A.** The cmax was 2.4 ± 0.2 mM.

**Q.** And the cmax (PQQGDH [1]; [8])?
**A.** Its cmax is 3.3 ± 0.2 mM.

**Q.** What about the Ki (PQQGDH [2]) of the same molecule?
**A.** The Ki was 11 ± 1 mM.

**Q.** What about the Ki (PQQGDH [2]; [9]) of the same molecule?
**A.** The Ki was 21 ± 1 mM.

**Q.** With `O=C[C@H](O)[C@@H](O)[C@@H](O)[C@H](O)CO` [Galactose] as the molecule, how does the “substrate concentration” value (PQQGDH [1]) read?
**A.** Its value is less than 20 mM.

**Q.** For `OC[C@H]1O[C@@H](O[C@H]2[C@H](O)[C@@H](O)C(O)O[C@@H]2CO)[C@H](O)[C@@H](O)[C@H]1O` (stereo partly shown) [Lactose], which “substrate concentration” value (PQQGDH [1]; grouping of substrates) is on record?
**A.** Its value is less than 20 mM.

**Q.** And the cmax (PQQGDH [1]; [7])?
**A.** The cmax was 5.2 ± 0.9 mM.

**Q.** What about the cmax (PQQGDH [1]; [8]) of the same molecule?
**A.** The cmax was 6.4 ± 0.4 mM.

**Q.** And the Ki (PQQGDH [2])?
**A.** Its Ki is 25 ± 2 mM.

**Q.** What about the Ki (PQQGDH [2]; [9]) of the same molecule?
**A.** Its Ki is 51 ± 2 mM.

**Q.** With `O=C[C@@H](O)[C@@H](O)[C@H](O)CO` [Lyxose] as the molecule, how does the “substrate concentration” value (PQQGDH [1]; grouping of substrates) read?
**A.** Its value is greater than 20 mM.

**Q.** What about the Vmax (PQQGDH [1]; pH 7.0, thionine 220 µM, apparent parameter) of the same molecule?
**A.** The Vmax was 190 ± 40 s⁻¹.

**Q.** What about the cmax (PQQGDH [1]; [7]) of the same molecule?
**A.** The cmax was >10^4 mM.

**Q.** For `O=C[C@H](O)[C@H](O)[C@H](O)CO` [Ribose], which “substrate concentration” value (PQQGDH [1]; grouping of substrates) is on record?
**A.** The value was greater than 20 mM.

**Q.** And the cmax (PQQGDH [1]; [7])?
**A.** The cmax was 84 ± 39 mM.

**Q.** Which results are given for `O=C[C@H](O)[C@@H](O)[C@H](O)CO` [Xylose]?
**A.** substrate concentration at which the maximal reaction rate was observed (cmax) (PQQGDH [1]; grouping of substrates): > 20 mM; cmax (PQQGDH [1]; [7]): 88 ± 8 mM

**Q.** For `Nc1ccc2c(c1)Sc1cc(N)ccc1N2` [leuco thionine], which “bimolecular horseradish peroxidase and leuco thionine reactivity constant” value (horseradish peroxidase) is on record?
**A.** Its value is 4.8e+08 M⁻¹ s⁻¹.

B1: PQQGDH (Acinetobacter calcoaceticus) (protein)
chain: DVPLTPSQFAKAKSENFDKKVILSNLNKPHALLWGPDNQIWLTERATGKILRVNPESGSVKTVFQVPEIVNDADGQNGLLGFAFHPDFKNNPYIYISGTFKNPKSTDKELPNQTIIRRYTYNKSTDTLEKPVDLLAGLPSSKDHQSGRLVIGPDQKIYYTIGDQGRNQLAYLFLPNQAQHTPTQQELNGKDYHTYMGKVLRLNLDGSIPKDNPSFNGVVSHIYTLGHRNPQGLAFTPNGKLLQSEQGPNSDDEINLIVKGGNYGWPNVAGYKDDSGYAYANYSAAANKSIKDLAQNGVKVAAGVPVTKESEWTGKNFVPPLKTLYTVQDTYNYNDPTCGEMTYICWPTVAPSSAYVYKGGKKAITGWENTLLVPSLKRGVIFRIKLDPTYSTTYDDAVPMFKSNNRYRDVIASPDGNVLYVLTDTAGNVQKDDGSVTNTLENPGSLIKFTYKAK
**Q.** Which results are given for B1?
**A.** Km [3]: 7100 ± 300 µM; kcat [3]: 460 ± 20 s⁻¹; Km [4]: 21000 ± 5000 µM; kcat [4]: 250 ± 60 s⁻¹; Km ([5]; other: pH 7.0, thionine 220 µM): 1500 ± 100 µM; kcat ([5]; other: pH 7.0, thionine 220 µM): 380 ± 50 s⁻¹; Km [5, 10]: 610 ± 20 µM; kcat [5, 10]: 430 ± 10 s⁻¹; Km ([6]; other: pH 7.0, thionine 220 µM): 2400 ± 200 µM; kcat ([6]; other: pH 7.0, thionine 220 µM): 350 ± 30 s⁻¹; Km [6, 10]: 1800 ± 100 µM; kcat [6, 10]: 349 ± 2 s⁻¹
